We go through five substances from US9833497B2, “Human originated EGF domain proteins and use of the same” (CHENGDU SOURCEBIO LIMITED-LIABILITY COMPANY, priority 2013, dated 2017).

Holding throughout (type): cell-based
One assay relates to Klebsiella pneumonia. The assay can be described thus: MIC against Gram-negative bacteria: Klebsiella pneumonia. The conditions noted are these: for MIC against K. pneumonia: 96-well plate, 37° C., 10 h. Summed up: (§1)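 LB broth cultures at McFarland 0.5, spun down, resuspended, diluted to 5×10^5 CFU/mL final. Two-fold serial dilutions of purified human EGF domain proteins, triplicate. 37° C, 175 rpm shaking. Endpoint: no visible growth.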

In a further assay the test system is Aeromonas hydrophila. The assay can be described thus: MIC against Gram-negative bacteria: Aeromonas hydrophila. The conditions noted are these: for MIC against A. hydrophila: 96-well plate, 37° C., 10 h. Summed up:
as §1

The test system of another assay is Proteus vulgaris. Put plainly: MIC against Gram-negative bacteria: Proteus vulgaris. The conditions noted are these: for MIC against P. vulgaris: 96-well plate, 37° C., 10 h. Summed up: as §1
The next assay relates to Proteus mirabilis. Put plainly: MIC against Gram-negative bacteria: Proteus mirabilis. The conditions noted are these: for MIC against P. mirabilis: 96-well plate, 37° C., 10 h. In a few lines:
as §1

Another assay has as its system Enterobacter cloacae. The assay can be described thus: MIC against Gram-negative bacteria: Enterobacter cloacae. The conditions noted are these: for MIC against E. cloacae: 96-well plate, 37° C., 10 h. In a few lines: as §1
The test system of the next assay is E. coli DH5α. Put plainly: Antibacterial activity: MIC and growth curve against E. coli DH5α in 96-well plate. As to conditions: minimal inhibitory concentration against E. coli DH5α; 96-well plate, 5×10^5 CFU/mL, 37° C., judged after 8 h. In a few lines:
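Log-phase bacteria (OD600 ~0.5) resuspended in LB at 5×10^5 CFU/mL, exposed to recombinant protein at 50, 25, 12.5 μg/mL final in triplicate, 37 °C shaking at 175 rpm. OD600 read every 30 min; MIC is lowest concentration showing no growth.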

The test system of a further assay is Serratia marcescens. Put plainly: MIC against Gram-negative bacteria: Serratia marcescens. The conditions noted are these: for MIC against S. marcescens: 96-well plate, 37° C., 10 h. In a few lines:
as §1

For a further assay, the system named is Citrobacter diversus. The assay can be described thus: MIC against Gram-negative bacteria: Citrobacter diversus. As to conditions: for MIC against C. diversus: 96-well plate, 37° C., 10 h. In a few lines:
as §1

Another assay deals with Moraxella catarrhalis. Put plainly: MIC against Gram-negative bacteria: Moraxella catarrhalis. The conditions noted are these: for MIC against M. catarrhalis: 96-well plate, 37° C., 10 h. In a few lines: as §1
Another assay concerns E. coli BL21. The assay can be described thus: MIC against Gram-negative bacteria: E. coli BL21. As to conditions: for MIC against E. coli BL21: 96-well plate, 37° C., 10 h. In a few lines:
as §1

The test system of the next assay is Pseudomonas aeruginosa. Put plainly: MIC against Gram-negative bacteria: Pseudomonas aeruginosa. As to conditions: for MIC against P. aeruginosa: 96-well plate, 37° C., 10 h. Summed up:
as §1

Where [1] appears, read: 10 h cultivation at 37° C., 5×10^5 CFU/mL, two-fold serial dilution.

For orientation: MIC means the lowest concentration that inhibits growth of the organism. Low readings indicate greater potency, high ones weaker potency. In the case of “PRT488 (DRCQLQTRCQNGGQWDGLKCQCPSTFYGSSCE; listed as Homo sapiens)”, the “MIC against K. pneumonia” value in the assay with Klebsiella pneumonia (5×10^5 CFU/mL) stood at 12.5 mg/L. For the same substance, the “MIC against A. hydrophila” value against Aeromonas hydrophila (5×10^5 CFU/mL) worked out at 12.5 mg/L. Further, the “MIC against P. vulgaris” value against Proteus vulgaris (5×10^5 CFU/mL) came to 12.5 mg/L. In the assay on Proteus mirabilis (5×10^5 CFU/mL), the “MIC against P. mirabilis” value was found to be 50 mg/L. Moreover, the “MIC against E. cloacae” value with Enterobacter cloacae (5×10^5 CFU/mL) was 50 mg/L. The MIC against E. coli DH5α was found to be 50 mg/L. Further, the “MIC against S. marcescens” value in the assay with Serratia marcescens (5×10^5 CFU/mL) amounted to 50 mg/L. In the assay with Citrobacter diversus (5×10^5 CFU/mL), the “MIC against C. diversus” value was found to be 50 mg/L. For the same substance, the “MIC against M. catarrhalis” value with Moraxella catarrhalis (5×10^5 CFU/mL) amounted to 12.5 mg/L. For the same substance, the “MIC against E. coli BL21” value against E. coli BL21 (5×10^5 CFU/mL) stood at 12.5 mg/L. For the same substance, the “MIC against P. aeruginosa” value with Pseudomonas aeruginosa (5×10^5 CFU/mL) stood at 50 mg/L.
As to “PRT836 (FGHDCSLTCDDCRNGGTCLLGLDGCDCPEGWTGLICN; listed as Homo sapiens)”, the “MIC (μg/mL) K. pneumonia” value in the assay with Klebsiella pneumonia (K. pneumonia, 10 h cultivation at 37° C., 5×10^5 CFU/mL) worked out at 12.5 µg/mL. In addition, the “MIC (μg/mL) A. hydrophila” value in the assay with Aeromonas hydrophila (A. hydrophila, 10 h cultivation at 37° C., 5×10^5 CFU/mL) was found to be 12.5 µg/mL. Moreover, the “MIC (μg/mL) P. vulgaris” value against Proteus vulgaris (P. vulgaris, 10 h cultivation at 37° C., 5×10^5 CFU/mL) is 25 µg/mL. Also, in the assay on Proteus mirabilis (P. mirabilis, 10 h cultivation at 37° C., 5×10^5 CFU/mL), the “MIC (μg/mL) P. mirabilis” value was 25 µg/mL. For the same substance, the “MIC (μg/mL) E. cloacae” value in the assay with Enterobacter cloacae (E. cloacae, 10 h cultivation at 37° C., 5×10^5 CFU/mL) was 50 µg/mL. The substance further registered a minimum inhibitory concentration (MIC) with E. coli DH5α of 50 mg/L. In the assay on Serratia marcescens (S. marcescens, 10 h cultivation at 37° C., 5×10^5 CFU/mL), the “MIC (μg/mL) S. marcescens” value is 12.5 µg/mL. In addition, the “MIC (μg/mL) C. diversus” value in the assay with Citrobacter diversus (C. diversus, 10 h cultivation at 37° C., 5×10^5 CFU/mL) is 25 µg/mL. In addition, the “MIC (μg/mL) M. catarrhalis” value in the assay with Moraxella catarrhalis (M. catarrhalis, 10 h cultivation at 37° C., 5×10^5 CFU/mL) is 12.5 µg/mL. Besides, the “MIC (μg/mL) E. coli BL21” value in the assay with E. coli BL21 (E. coli BL21, 10 h cultivation at 37° C., 5×10^5 CFU/mL) was determined as 12.5 µg/mL. Moreover, the “MIC (μg/mL) P. aeruginosa” value with Pseudomonas aeruginosa (P. aeruginosa, 10 h cultivation at 37° C., 5×10^5 CFU/mL) amounted to 50 µg/mL.
As for “PRT1035 (HRAKCAPSYLFSCFNGGECVHPAFCDCRRFNATGPRCQ; listed as Homo sapiens)”, the MIC came to 25 mg/L against Klebsiella pneumonia (K. pneumonia, 10 h cultivation at 37° C.); 50 mg/L against Aeromonas hydrophila (A. hydrophila, 10 h cultivation at 37° C.); 25 mg/L with Proteus vulgaris (P. vulgaris, 10 h cultivation at 37° C.); 12.5 mg/L against Proteus mirabilis (P. mirabilis, 10 h cultivation at 37° C.); 25 mg/L in the assay with Enterobacter cloacae (E. cloacae, 10 h cultivation at 37° C.); 12.5 mg/L against E. coli DH5α. Besides, the MIC in the assay on Serratia marcescens (S. marcescens, 10 h cultivation at 37° C.) was 50 mg/L; against Citrobacter diversus (C. diversus, 10 h cultivation at 37° C.), 12.5 mg/L; against Moraxella catarrhalis (M. catarrhalis, 10 h cultivation at 37° C.), 25 mg/L; in the assay on E. coli BL21 (E. coli BL21, 10 h cultivation at 37° C.) it was 50 mg/L; in the assay with Pseudomonas aeruginosa (P. aeruginosa, 10 h cultivation at 37° C.), 12.5 mg/L.
In the case of “PRT1335 (MTDICKSDNPCHRNANCTTVAPGRTECICQKGYVGDGLTCY; listed as Homo sapiens)”, in the assay on Klebsiella pneumonia (Klebsiella pneumonia, 5×10^5 CFU/mL), the “MIC against K. pneumonia” value was 12.5 mg/L. Besides, in the assay with Aeromonas hydrophila (Aeromonas hydrophila, 5×10^5 CFU/mL), the “MIC against A. hydrophila” value worked out at 12.5 mg/L. Also, the “MIC against P. vulgaris” value in the assay with Proteus vulgaris (Proteus vulgaris, 5×10^5 CFU/mL) worked out at 12.5 mg/L. Besides, the “MIC against P. mirabilis” value against Proteus mirabilis (Proteus mirabilis, 5×10^5 CFU/mL) was 25 mg/L. In the assay with Enterobacter cloacae (Enterobacter cloacae, 5×10^5 CFU/mL), the “MIC against E. cloacae” value is 50 mg/L. In the assay with E. coli DH5α, this substance had an MIC of 50 mg/L. The “MIC against S. marcescens” value in the assay with Serratia marcescens (Serratia marcescens, 5×10^5 CFU/mL) stood at 50 mg/L. Moreover, the “MIC against C. diversus” value with Citrobacter diversus (Citrobacter diversus, 5×10^5 CFU/mL) was 25 mg/L. Further, the “MIC against M. catarrhalis” value against Moraxella catarrhalis (Moraxella catarrhalis, 5×10^5 CFU/mL) came out at 50 mg/L. In addition, the “MIC against E. coli BL21” value in the assay on E. coli BL21 (E. coli BL21, 5×10^5 CFU/mL) turned out to be 12.5 mg/L. In addition, the “MIC against P. aeruginosa” value against Pseudomonas aeruginosa (Pseudomonas aeruginosa, 5×10^5 CFU/mL) worked out at 50 mg/L.
For “PRT1152 (HASPCSLMKCGNGGTCIESGTSVYCNCTTGWKGSFCT; listed as Homo sapiens)”, the “MIC K. pneumonia” value against Klebsiella pneumonia (setting [1]) is 25 mg/L. In addition, the “MIC A. hydrophila” value in the assay with Aeromonas hydrophila (setting [1]) amounted to 12.5 mg/L. Also, the “MIC P. vulgaris” value in the assay with Proteus vulgaris (setting [1]) stood at 25 mg/L. Further, the “MIC P. mirabilis” value in the assay with Proteus mirabilis (setting [1]) came out at 12.5 mg/L. In the assay on Enterobacter cloacae (setting [1]), the “MIC E. cloacae” value amounted to 12.5 mg/L. The MIC with E. coli DH5α came to 12.5 mg/L. Also, the “MIC S. marcescens” value against Serratia marcescens (setting [1]) turned out to be 50 mg/L. Moreover, the “MIC C. diversus” value with Citrobacter diversus (setting [1]) is 12.5 mg/L. Moreover, the “MIC M. catarrhalis” value against Moraxella catarrhalis (setting [1]) worked out at 12.5 mg/L. For the same substance, the “MIC E. coli BL21” value against E. coli BL21 (setting [1]) was found to be 25 mg/L. Also, the “MIC P. aeruginosa” value against Pseudomonas aeruginosa (setting [1]) was found to be 12.5 mg/L.
